Results reported in PubChem BioAssay (NCI).
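96-well plates; 48 h exposure; 5 concentrations. Endpoints by linear interpolation between flanking doses. Not reached: highest tested concentration assigned. At the GI50, growth is halved. The concentration for full growth arrest is given as TGI.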

Tested on: HOP-62 NSCLC
Test: DTP human tumour cell line panel, 48 h

Question: Which GI50 does the source give for O=C(N/N=C/c1ccccc1O)c1ccccc1Nc1ccnc(C(F)(F)F)c1 here?
Answer: 0.41 µM

Question: What about the TGI of the same molecule?
Answer: 13.4 µM

Tested on: HOP-92 NSCLC
Test: DTP human tumour cell line panel, 48 h

Question: CN1C(=O)C2(Cc3cn(C45CC67SSC(CO)(C(=O)N6C4Nc4ccccc45)N(C)C7=O)c4ccccc34)SSC1(CO)C(=O)N2C (stereo unspecified) was tested. Which TGI did it give?
Answer: 0.771 µM

Question: With CCCn1cnc2c(SCc3ccccc3Cl)nc(N)nc21 as the molecule, how does the GI50 read?
Answer: 1.44 µM

Question: What about the TGI of the same molecule?
Answer: 23.9 µM

Question: Cc1ccc(NC(=O)c2cccc(N(C)C)c2)cc1NC(=O)c1ccc(O)cc1 was tested. Which GI50 did it give?
Answer: > 52.7 µM

Question: And the TGI?
Answer: > 100 µM

Question: Which results are given for O=C(N/N=C/c1ccccc1O)c1ccccc1Nc1ccnc(C(F)(F)F)c1?
Answer: GI50: 0.388 µM; TGI: 10.9 µM

Tested on: HS 578T breast
Test: DTP human tumour cell line panel, 48 h

Question: What does the source list for CCCn1cnc2c(SCc3ccccc3Cl)nc(N)nc21?
Answer: GI50: 40.4 µM; TGI: > 100 µM

Question: What does the source list for Cc1ccc(NC(=O)c2cccc(N(C)C)c2)cc1NC(=O)c1ccc(O)cc1?
Answer: GI50: 63.6 µM; TGI: > 100 µM

Question: Which GI50 does the source give for O=C(N/N=C/c1ccccc1O)c1ccccc1Nc1ccnc(C(F)(F)F)c1 here?
Answer: 12.9 µM

Question: What about the TGI of the same molecule?
Answer: > 100 µM

Tested on: HT29 colon
Test: DTP human tumour cell line panel, 48 h

Question: CN1C(=O)C2(Cc3cn(C45CC67SSC(CO)(C(=O)N6C4Nc4ccccc45)N(C)C7=O)c4ccccc34)SSC1(CO)C(=O)N2C (stereo unspecified) was tested. Which TGI did it give?
Answer: 0.0164 µM

Question: With CCCn1cnc2c(SCc3ccccc3Cl)nc(N)nc21 as the molecule, how does the GI50 read?
Answer: 7.59 µM

Question: What about the TGI of the same molecule?
Answer: > 100 µM

Question: Which GI50 does the source give for Cc1ccc(NC(=O)c2cccc(N(C)C)c2)cc1NC(=O)c1ccc(O)cc1 here?
Answer: > 57.3 µM

Question: What about the TGI of the same molecule?
Answer: > 100 µM

Question: Which GI50 does the source give for O=C(N/N=C/c1ccccc1O)c1ccccc1Nc1ccnc(C(F)(F)F)c1 here?
Answer: 3.32 µM

Question: And the TGI?
Answer: 53.5 µM

Tested on: IGROV1 ovarian
Test: DTP human tumour cell line panel, 48 h

Question: CN1C(=O)C2(Cc3cn(C45CC67SSC(CO)(C(=O)N6C4Nc4ccccc45)N(C)C7=O)c4ccccc34)SSC1(CO)C(=O)N2C (stereo unspecified) was tested. Which TGI did it give?
Answer: 0.107 µM

Question: What does the source list for CCCn1cnc2c(SCc3ccccc3Cl)nc(N)nc21?
Answer: GI50: 13.3 µM; TGI: > 100 µM

Question: What does the source list for Cc1ccc(NC(=O)c2cccc(N(C)C)c2)cc1NC(=O)c1ccc(O)cc1?
Answer: GI50: > 85.8 µM; TGI: > 100 µM

Question: How did the GI50 turn out when O=C(N/N=C/c1ccccc1O)c1ccccc1Nc1ccnc(C(F)(F)F)c1 was run?
Answer: 0.0154 µM

Question: What about the TGI of the same molecule?
Answer: 0.0883 µM

Tested on: K-562 leukemia
Test: DTP human tumour cell line panel, 48 h

Question: With CN1C(=O)C2(Cc3cn(C45CC67SSC(CO)(C(=O)N6C4Nc4ccccc45)N(C)C7=O)c4ccccc34)SSC1(CO)C(=O)N2C (stereo unspecified) as the molecule, how does the TGI read?
Answer: > 100 µM

Question: How did the GI50 turn out when CCCn1cnc2c(SCc3ccccc3Cl)nc(N)nc21 was run?
Answer: 6.55 µM

Question: And the TGI?
Answer: > 100 µM

Question: Which GI50 does the source give for Cc1ccc(NC(=O)c2cccc(N(C)C)c2)cc1NC(=O)c1ccc(O)cc1 here?
Answer: 42.7 µM

Question: What about the TGI of the same molecule?
Answer: > 100 µM

Question: Which results are given for O=C(N/N=C/c1ccccc1O)c1ccccc1Nc1ccnc(C(F)(F)F)c1?
Answer: GI50: 0.53 µM; TGI: > 100 µM

Tested on: KM12 colon
Test: DTP human tumour cell line panel, 48 h

Question: How did the TGI turn out when CN1C(=O)C2(Cc3cn(C45CC67SSC(CO)(C(=O)N6C4Nc4ccccc45)N(C)C7=O)c4ccccc34)SSC1(CO)C(=O)N2C (stereo unspecified) was run?
Answer: 0.577 µM

Question: With CCCn1cnc2c(SCc3ccccc3Cl)nc(N)nc21 as the molecule, how does the GI50 read?
Answer: 15.3 µM

Question: And the TGI?
Answer: > 100 µM

Question: Which results are given for Cc1ccc(NC(=O)c2cccc(N(C)C)c2)cc1NC(=O)c1ccc(O)cc1?
Answer: GI50: 54.9 µM; TGI: > 100 µM

Question: O=C(N/N=C/c1ccccc1O)c1ccccc1Nc1ccnc(C(F)(F)F)c1 was tested. Which GI50 did it give?
Answer: 0.484 µM

Question: What about the TGI of the same molecule?
Answer: 32.7 µM

Tested on: LOX IMVI melanoma
Test: DTP human tumour cell line panel, 48 h

Question: How did the GI50 turn out when CCCn1cnc2c(SCc3ccccc3Cl)nc(N)nc21 was run?
Answer: 4.86 µM

Question: And the TGI?
Answer: 20.3 µM

Question: Which GI50 does the source give for Cc1ccc(NC(=O)c2cccc(N(C)C)c2)cc1NC(=O)c1ccc(O)cc1 here?
Answer: > 62 µM

Question: What about the TGI of the same molecule?
Answer: > 100 µM

Question: How did the GI50 turn out when O=C(N/N=C/c1ccccc1O)c1ccccc1Nc1ccnc(C(F)(F)F)c1 was run?
Answer: 0.279 µM

Question: And the TGI?
Answer: > 54.7 µM

Tested on: M14 melanoma
Test: DTP human tumour cell line panel, 48 h

Question: CN1C(=O)C2(Cc3cn(C45CC67SSC(CO)(C(=O)N6C4Nc4ccccc45)N(C)C7=O)c4ccccc34)SSC1(CO)C(=O)N2C (stereo unspecified) was tested. Which TGI did it give?
Answer: 0.0298 µM

Question: CCCn1cnc2c(SCc3ccccc3Cl)nc(N)nc21 was tested. Which GI50 did it give?
Answer: 17.6 µM

Question: What about the TGI of the same molecule?
Answer: 61.9 µM

Question: Which GI50 does the source give for Cc1ccc(NC(=O)c2cccc(N(C)C)c2)cc1NC(=O)c1ccc(O)cc1 here?
Answer: > 64.6 µM

Question: And the TGI?
Answer: > 100 µM

Question: With O=C(N/N=C/c1ccccc1O)c1ccccc1Nc1ccnc(C(F)(F)F)c1 as the molecule, how does the GI50 read?
Answer: 0.497 µM

Question: What about the TGI of the same molecule?
Answer: 3.76 µM

Tested on: MALME-3M melanoma
Test: DTP human tumour cell line panel, 48 h

Question: Which GI50 does the source give for CCCn1cnc2c(SCc3ccccc3Cl)nc(N)nc21 here?
Answer: 21.4 µM

Question: And the TGI?
Answer: 58.7 µM

Question: How did the GI50 turn out when Cc1ccc(NC(=O)c2cccc(N(C)C)c2)cc1NC(=O)c1ccc(O)cc1 was run?
Answer: > 75.9 µM

Question: What about the TGI of the same molecule?
Answer: > 100 µM

Question: Which results are given for O=C(N/N=C/c1ccccc1O)c1ccccc1Nc1ccnc(C(F)(F)F)c1?
Answer: GI50: 0.858 µM; TGI: 19.2 µM

Tested on: MCF7 breast
Test: DTP human tumour cell line panel, 48 h

Question: With CN1C(=O)C2(Cc3cn(C45CC67SSC(CO)(C(=O)N6C4Nc4ccccc45)N(C)C7=O)c4ccccc34)SSC1(CO)C(=O)N2C (stereo unspecified) as the molecule, how does the TGI read?
Answer: 0.259 µM

Question: How did the GI50 turn out when CCCn1cnc2c(SCc3ccccc3Cl)nc(N)nc21 was run?
Answer: 38.6 µM

Question: What about the TGI of the same molecule?
Answer: > 100 µM

Question: With Cc1ccc(NC(=O)c2cccc(N(C)C)c2)cc1NC(=O)c1ccc(O)cc1 as the molecule, how does the GI50 read?
Answer: 52 µM

Question: And the TGI?
Answer: > 100 µM

Question: With O=C(N/N=C/c1ccccc1O)c1ccccc1Nc1ccnc(C(F)(F)F)c1 as the molecule, how does the GI50 read?
Answer: 0.35 µM

Question: And the TGI?
Answer: 29.2 µM

Tested on: MDA-MB-231 breast
Test: DTP human tumour cell line panel, 48 h

Question: How did the TGI turn out when CN1C(=O)C2(Cc3cn(C45CC67SSC(CO)(C(=O)N6C4Nc4ccccc45)N(C)C7=O)c4ccccc34)SSC1(CO)C(=O)N2C (stereo unspecified) was run?
Answer: 0.0494 µM

Question: How did the GI50 turn out when CCCn1cnc2c(SCc3ccccc3Cl)nc(N)nc21 was run?
Answer: 11.8 µM

Question: What about the TGI of the same molecule?
Answer: 29.3 µM

Question: Cc1ccc(NC(=O)c2cccc(N(C)C)c2)cc1NC(=O)c1ccc(O)cc1 was tested. Which GI50 did it give?
Answer: 33 µM

Question: What about the TGI of the same molecule?
Answer: > 93.6 µM

Question: Which GI50 does the source give for O=C(N/N=C/c1ccccc1O)c1ccccc1Nc1ccnc(C(F)(F)F)c1 here?
Answer: 0.796 µM

Question: And the TGI?
Answer: > 95.4 µM

Tested on: MDA-MB-435
Test: DTP human tumour cell line panel, 48 h

Question: For CCCn1cnc2c(SCc3ccccc3Cl)nc(N)nc21, which GI50 is on record?
Answer: 13.6 µM

Question: What about the TGI of the same molecule?
Answer: 37 µM

Question: How did the GI50 turn out when Cc1ccc(NC(=O)c2cccc(N(C)C)c2)cc1NC(=O)c1ccc(O)cc1 was run?
Answer: 52.3 µM

Question: What about the TGI of the same molecule?
Answer: > 100 µM

Question: For O=C(N/N=C/c1ccccc1O)c1ccccc1Nc1ccnc(C(F)(F)F)c1, which GI50 is on record?
Answer: 1.37 µM

Question: And the TGI?
Answer: > 100 µM

Tested on: MDA-N
Test: DTP human tumour cell line panel, 48 h

Question: For CN1C(=O)C2(Cc3cn(C45CC67SSC(CO)(C(=O)N6C4Nc4ccccc45)N(C)C7=O)c4ccccc34)SSC1(CO)C(=O)N2C (stereo unspecified), which TGI is on record?
Answer: 0.0661 µM

Tested on: MOLT-4 leukemia
Test: DTP human tumour cell line panel, 48 h

Question: How did the TGI turn out when CN1C(=O)C2(Cc3cn(C45CC67SSC(CO)(C(=O)N6C4Nc4ccccc45)N(C)C7=O)c4ccccc34)SSC1(CO)C(=O)N2C (stereo unspecified) was run?
Answer: 1.08 µM

Question: CCCn1cnc2c(SCc3ccccc3Cl)nc(N)nc21 was tested. Which GI50 did it give?
Answer: 5.22 µM

Question: What about the TGI of the same molecule?
Answer: 34.1 µM

Question: Which results are given for Cc1ccc(NC(=O)c2cccc(N(C)C)c2)cc1NC(=O)c1ccc(O)cc1?
Answer: GI50: > 72.4 µM; TGI: > 100 µM

Question: With O=C(N/N=C/c1ccccc1O)c1ccccc1Nc1ccnc(C(F)(F)F)c1 as the molecule, how does the GI50 read?
Answer: 0.28 µM

Question: And the TGI?
Answer: > 32.3 µM

Tested on: NCI-H226 lung
Test: DTP human tumour cell line panel, 48 h

Question: With CCCn1cnc2c(SCc3ccccc3Cl)nc(N)nc21 as the molecule, how does the GI50 read?
Answer: 16.4 µM

Question: And the TGI?
Answer: > 100 µM

Question: What does the source list for Cc1ccc(NC(=O)c2cccc(N(C)C)c2)cc1NC(=O)c1ccc(O)cc1?
Answer: GI50: > 71.4 µM; TGI: > 100 µM

Question: How did the GI50 turn out when O=C(N/N=C/c1ccccc1O)c1ccccc1Nc1ccnc(C(F)(F)F)c1 was run?
Answer: 1.08 µM

Question: What about the TGI of the same molecule?
Answer: 12.1 µM
